From article PMC13070491, “Single-nucleus transcriptomics, pharmacokinetics, and pharmacodynamics of CDK4/6 and mTOR inhibition in a Phase 0/1 trial of recurrent high-grade glioma” (Neuro-Oncology, 2025)

Tested on: GB126, GB239 and GB86 patient-derived cell lines
Experiment: In vitro single-cell RNA sequencing, analyses across the cell lines (pseudobulk differential gene expression, GSEA, non-cycling cells)
Format: cell-based, human
Conditions: pseudobulk, ribociclib versus control (DMSO)
Method: Patient-derived glioma stem cell lines (GSCs; GB126, GB86, and GB239) were established from resected GBM tumor tissue. Cell lines were genetically profiled for mutations and copy number aberrations using the IvySeq custom gene panel. […] GB239 was derived from a tumor sample included in this Phase 0 trial (tumor sample: 100-0039). All human GSCs were cultured as described previously.[12]
Following the fifth day of drug exposure, cells were harvested, cryopreserved to be processed at a later point, or immediately processed for single-cell RNA sequencing (10x Genomics, 3’ version 3). The single-cell RNA sequencing data were then processed via cellranger count and Seurat. Briefly, cells were filtered out based on the following criteria: minimum number of genes detected >500 and <10 000 with a maximum percentage of mitochondrial genes set to 10%. Statistical assessment was made between the malignant proportions of each cell state using a 2-sided paired t-test.
Descriptive statistics of the clinical data are included in Table 1. Comparisons between groups were conducted using a 2-sided or paired 2-sided t-test, where indicated. P < .05 was considered significant. Multiple hypothesis test corrections (ie, false discovery rate correction) were applied for snRNAseq pseudobulk differential expression analysis.

## CN(C)C(=O)c1cc2cnc(Nc3ccc(N4CCNCC4)cn3)nc2n1C1CCCC1 [ribo]
Gene CYSLTR2
  log2FoldChange CYSLTR2: 1.514
Gene CYYR1-AS1
  log2FoldChange CYYR1-AS1: 1.511
Gene DDO
  log2FoldChange DDO: 1.495
Gene DEPDC1B
  log2FoldChange: -1.796
Gene DERL3
  log2FoldChange: -1.095
Gene DHFR
  log2FoldChange: -1.766
Gene DIAPH3-AS2
  log2FoldChange: -1.671
Gene DNA2
  log2FoldChange: -1.693
Gene DSCR8
  log2FoldChange DSCR8: 1.633
Gene DTL
  log2FoldChange: -1.106
Gene ECT2
  log2FoldChange: -1.057
Gene FAM71F1
  log2FoldChange FAM71F1: 1.476
Gene FAM72D
  log2FoldChange: -1.625
Gene FAM189A2
  log2FoldChange FAM189A2: 1.685
Gene FANCG
  log2FoldChange: -1.109
Gene FBLN1
  log2FoldChange: -1.678
Gene FEN1
  log2FoldChange: -1.753
Gene FGFR3
  log2FoldChange: -1.106
Gene FSHR
  log2FoldChange FSHR: 1.906
Gene GBP6
  log2FoldChange GBP6: 1.725
Gene GDF3
  log2FoldChange GDF3: 1.697
Gene GINS2
  log2FoldChange: -1.846
Gene GLI1
  log2FoldChange: -1.086
Gene GMNN
  log2FoldChange: -1.627
Gene HABP2
  log2FoldChange HABP2: 1.889
Gene HAUS8
  log2FoldChange: -1.09
Gene HEPH
  log2FoldChange HEPH: 1.499
Gene HGFAC
  log2FoldChange HGFAC: 1.4467
Gene HIRIP3
  log2FoldChange: -1.608
Gene HIST1H1C
  log2FoldChange: -1.863
Gene HIST1H3H
  log2FoldChange: -1.783
Gene HKDC1
  log2FoldChange HKDC1: 1.5426
Gene IL1A
  log2FoldChange: -1.056
Gene IL2RB
  log2FoldChange: -1.0626
Gene INCENP
  log2FoldChange: -1.833
Gene ITIH6
  log2FoldChange ITIH6: 1.766
Gene KCNAB3
  log2FoldChange: -1.628
Gene KISS1
  log2FoldChange KISS1: 2.005
Gene KNTC1
  log2FoldChange: -1.6836
Gene LINC00239
  log2FoldChange LINC00239: 1.81
Gene LINC00587
  log2FoldChange LINC00587: 1.439
Gene LINC00601
  log2FoldChange LINC00601: 1.889
Gene LINC00645
  log2FoldChange LINC00645: 1.665
Gene LINC00844
  log2FoldChange LINC00844: 1.919
Gene LINC00892
  log2FoldChange LINC00892: 1.448
Gene LINC00901
  log2FoldChange LINC00901: 2.0689
Gene LINC00903
  log2FoldChange LINC00903: 1.858
Gene LINC00943
  log2FoldChange LINC00943: 1.485
Gene LINC00992
  log2FoldChange LINC00992: 1.834
Gene LINC01337
  log2FoldChange: -1.849
Gene LINC01496
  log2FoldChange LINC01496: 1.714
Gene LINC01630
  log2FoldChange LINC01630: 1.508
Gene LINC01822
  log2FoldChange LINC01822: 1.567
Gene LINC02073
  log2FoldChange LINC02073: 1.471
Gene LINC02137
  log2FoldChange: -1.093
Gene LINC02243
  log2FoldChange LINC02243: 1.564
Gene LINC02320
  log2FoldChange LINC02320: 1.543
Gene LINC02349
  log2FoldChange LINC02349: 1.483
Gene LINC02450
  log2FoldChange LINC02450: 1.635
Gene LINC02552
  log2FoldChange LINC02552: 1.805
Gene LINC02625
  log2FoldChange LINC02625: 1.633
Gene LINC02757
  log2FoldChange: -1.715
Gene LINC02831
  log2FoldChange LINC02831: 1.506
Gene LNX1-AS1
  log2FoldChange LNX1-AS1: 1.468
Gene LPL
  log2FoldChange: -1.817
Gene LRRC26
  log2FoldChange: -1.7868
Gene MARVELD3
  log2FoldChange MARVELD3: 1.752
Gene MCHR1
  log2FoldChange MCHR1: 1.5856
Gene MCM8
  log2FoldChange: -1.112
Gene MGP
  log2FoldChange MGP: 1.798
Gene MMS22L
  log2FoldChange: -1.0936
Gene MND1
  log2FoldChange: -1.879
Gene MYH7
  log2FoldChange MYH7: 1.782
Gene NAT2
  log2FoldChange NAT2: 2.867
Gene NCAN
  log2FoldChange NCAN: 1.62
Gene NCAPD2
  log2FoldChange: -1.822
Gene NEMP2
  log2FoldChange: -1.111
Gene NEUROD4
  log2FoldChange: -1.88
Gene NHLRC4
  log2FoldChange NHLRC4: 1.795
Gene NMRK2
  log2FoldChange NMRK2: 1.566
Gene NOSTRIN
  log2FoldChange: -1.881
Gene NT5M
  log2FoldChange: -1.088
Gene NUP210
  log2FoldChange: -1.755
Gene PALM3
  log2FoldChange: -1.6379
Gene PASK
  log2FoldChange: -1.1089
Gene PCP4L1
  log2FoldChange PCP4L1: 2.139
Gene PHF19
  log2FoldChange: -1.68
Gene PLA2G5
  log2FoldChange PLA2G5: 2.135
Gene PLAAT4
  log2FoldChange PLAAT4: 1.529
Gene PMAIP1
  log2FoldChange: -1.131
Gene POLQ
  log2FoldChange: -1.824
Gene PPP1R1C
  log2FoldChange PPP1R1C: 1.557
Gene PROK2
  log2FoldChange PROK2: 1.695
Gene PRR11
  log2FoldChange: -1.758
Gene PSMC3IP
  log2FoldChange: -1.597
Gene PTGDS
  log2FoldChange PTGDS: 2.458
Gene RAB7B
  log2FoldChange RAB7B: 1.47
Gene RACGAP1
  log2FoldChange: -1.841
Gene RAD51
  log2FoldChange: -1.643
Gene RADIL
  log2FoldChange: -1.781
Gene RBBP8
  log2FoldChange: -1.095
Gene RDM1
  log2FoldChange: -1.73
Gene REXO5
  log2FoldChange: -1.094
Gene RHBDL3
  log2FoldChange: -1.639
Gene RNASE6
  log2FoldChange RNASE6: 1.784
Gene RPA3
  log2FoldChange: -1.063
Gene RSPH1
  log2FoldChange RSPH1: 1.529
Gene RTKN2
  log2FoldChange: -1.715
